Literature values as cited in patent US20190151262A1, “USE OF N-ACETYLCYSTEINE AMIDE FOR DECREASING INTRACRANIAL PRESSURE” (priority 2013, published 2019).

Test system: intra-cranial pressure
Settings: previously tried anti-oxidant; Thomale et al. Intensive Care Med. 32:149-155 (2006)

CC(=O)N[C@@H](CS)C(=O)O [NAC, n-acetylcysteine]
decrease of intra-cranial pressure: no success
